The subject of test [1] is LNCaP cells. Kind of test: Evaluation of proliferation ability by MTS assay. The test is classed as cell-based, Human. On the procedure: After treatment with the PI polyamide (1) or the PI polyamide (control) for comparison, the proliferation ability of these cells were examined by MTS assay.
In particular, the LNCaP cells were seeded on a 96-well plate to 5×10^3 cells in total and cultured for 3 days in the Phenol-Red-free medium of 3. (2) to which each of the PI polyamides was added at 1 μM or 5 μM. Subsequently, DHT (100 nM) of 4. was added into the medium to apply androgen stimulation. After the stimulation, each of the cells were cultured for 24, 48, or 96 hours.
After the specified stimulation time, 10 μl of an MTS reagent (Cell Titer 96 AQueous One Solution Cell Proliferation Assay, Promega, Madison Wis.) was added to the cells before incubation for 1 hour. Subsequently, the absorbance (490 nm) of the cells was measured and the numbers of the cultured cells were examined to evaluate the cell proliferation ability.

In test [2] the test system is LNCaP cells. Kind of test: Evaluation of cell migration ability (cell migration assay). The test is classed as cell-based, Human. The following applies: 5 μM, 3 days, compared to PI polyamide (control), FIGS. 9 and 10. On the procedure: After culturing cells into which the PI polyamide (1) was introduced and cells into which the PI polyamide (control) was introduced for comparison, the migration ability of the cells was examined by a cell migration assay using a cell culture insert and a 8.0 μm pore size PET filter (manufactured by Becton Dickinson).
In particular, after fibronectin (manufactured by Sigma) diluted with PBS to 10 μg/ml was allowed to act on a culture dish for 30 minutes to form a lower filter, 700 μl of the Phenol-Red-containing RPMI 1640 medium of 3. (1) was added to a lower chamber.
The LNCaP cells were cultured for 3 days in the Phenol-Red-containing medium of 3. (1) to which each of the PI polyamides was added at 5 μM and divided into units of 5×10^4 cells, and each unit of cells was suspended in 300 μl of the Phenol-Red-containing medium of 3. (1) and added to the upper chamber. After the cells were cultured at 37° C. under the condition of 5% CO2, the filter was peeled off.
The cells on the lower filter were fixed by methanol for 30 minutes and then incubated for 30 seconds in Gimsa's stain solution (manufactured by Muto Pure Chemicals). Subsequently, the cells were observed by a microscope of 200 magnifications to count the number of cells, thereby evaluating the cell migration ability.

The next test concerns ACSL3 gene. Briefly: Examination of expression of ACSL3 gene by RT-PCR in LNCaP cells. The test is classed as cell-based, Human. As for the experimental part:
The expression of ACSL3 Gene was examined by RT-PCR in a cell into which each of the PI polyamides (1) to (3) was introduced. For comparison, the same examination was conducted for a cell into which the PI polyamide (control) was introduced.
The LNCaP cells were cultured for 3 days in the Phenol-Red-free medium of 3. (2) to which each of the PI polyamides was added at 5 μM. Subsequently, DHT (100 nM) of 4. was added into the medium to apply androgen stimulation.
After RNA is extracted from the cells by using Isogen (Nippon Gene) in accordance with a manual, cDNA was prepared by using PrimeScript (registered trademark) Reverse Transcriptase (manufactured by TaKaRa).
Each of the cDNAs prepared in 1) was used as a template DNA to examine with primers listed in Table 4 the presence/absence of expression of a fusion gene or an ERG gene in the prostate cancer cell into which each of the PI polyamides was introduced. In this RT-qPCR, Power SYBR (registered trademark) Green PCR Master Mix (manufactured by Applied Biosystems) was used.

For another test, the system named is ACSL3 protein. Briefly: Western blotting of ACSL3 protein from excised tumors. The following applies: nude mice, tail vein 6 mg/kg once per week for 4 weeks, FIG. 12. The test is classed as in vivo, Human. As for the experimental part:
(§1) To 7-week-old male nude mice (n=10), 3×10^6 prostate cancer cells (LNCaP) were subcutaneously injected at the right flank. A tumor size was monitored by caliper measurement every 3 days. When the tumor size reaches […], the PI polyamide (1) or the PI polyamide (control) dissolved in dH2O was injected from a tail vein at 6 mg/kg bodyweight (PI polyamide (1): n=4, PI polyamide (control): n=6).
(§2) The injection was performed once per week for 4 weeks and the tumor size was measured every week. After one week from the last injection, the nude mice were dissected to excise the tumors.
FIG. 12 depicts a result of western blotting with an ACSL3 antibody of protein extracted using a lysis buffer (NP40 buffer) from the excised tumors (two individuals #1 and #2) (upper portion of FIG. 12; lower portion indicates expression of β-actin protein).

The next test concerns PSA promoter region. Kind of test: Luciferase assay of AR activity in PSA promoter region (positive control). The test is classed as cell-based, Human. The following applies: LNCaP, compared to same amount of PI polyamide (control), FIG. 7. As for the experimental part:
(§3) About 1 kb of AR binding site (ARBS) located 63 kb upstream of the ACSL3 transcription start point was extracted (SEQ ID NO:10) and insert into a luciferase vector (pGL3 promoter vector: Promega, Madison, Wis.). This vector was used for transfection of a prostate cancer cell (LNCaP) cultured for about 60 hours in the Phenol-Red-free medium of 3. (2) by using FuGENE (registered trademark) HD (Roche Applied Science) as a transection reagent in accordance with the protocol thereof.
(§4) After about 12 hours, androgen stimulation using 100 nM of DHT and introduction of the PI polyamide (1) or PI polyamide (control) (1 μM or 5 μM) were performed and followed by a luciferase assay. This test was conducted by using prostate cancer cells (LNCaP) incorporated with a PSA promoter region (SEQ ID NO:22) known to have AR response activity as a positive control for the luciferase vector.

In test [3] the test system is prostate cancer cells (LNCaP) tumor. Kind of test: Effect of the PI polyamide on a tumor in nude mice injected with LNCaP. Particulars: tail vein 6 mg/kg once per week for 4 weeks, compared to PI polyamide (control), FIG. 11. The test is classed as in vivo. On the procedure:
The effect of the PI polyamide on a tumor was confirmed.
as §1, §2

For test [4], the system named is ACSL3 transcriptional regulatory region (AR response region). Kind of test: Luciferase assay of AR activity in ACSL3 transcriptional regulatory region. The test is classed as cell-based, Human. The following applies: LNCaP, 1 μM or 5 μM, DHT 100 nM, compared to same amount of PI polyamide (control), FIG. 6. On the procedure:
as §3, §4

In test [5] the test system is Oct1 oligo DNA (Oct1 gene binding sequence, SEQ ID NO:1). Kind of test: DNA Binding Assay (gel electrophoretic pattern). Particulars: 5 μl of 0.2 mM PI polyamide mixed with 15 μl hairpin double strand DNA, 37° C. 1 hour. On the procedure:
For each of the PI polyamides (1) to (3) (three types) generated in 5, a DNA Binding Assay of the following steps 1) and 2) was performed to confirm binding to the Oct1 gene binding sequence (SEQ ID NO:1). The PI polyamide (control) was also examined in terms of the presence/absence of binding to the Oct1 gene binding sequence (SEQ ID NO:1).
1) Molecules (50-base) were created that have Oct1 oligo DNA including the same base sequence as the Oct1 gene binding sequence (SEQ ID NO:1) labelled with FITC, and the oligo at a final concentration of 1 μM was heated to 100° C. in an annealing buffer (20 mM Tris-HCl, 2 mM EDTA, 200 mM NaCl). The oligo was cooled for 2 hours in stages to 30° C. As a result, the Oct1 oligo DNA underwent self-annealing and forms a double strand in a hairpin shape.
2) 15 μl of solution containing the hairpin-shaped double strand DNA of 1) was mixed with 5 μl of each of the 0.2 mM PI polyamides (1) to (3) and PI polyamide (control) and incubated at 37° C. for 1 hour to acquire a mixed solution.
3) The mixed solution of 2) was electrophoresed in 5-20% acrylamide gel (TBE buffer) and an electrophoretic pattern was monitored with LAS 4000 (manufactured by GE Healthcare Japan) to determine the presence/absence of binding from a difference in the electrophoretic pattern.

[6] abbreviates: concentration and time not stated.
Setting [7] is: 5 μM, 3 days, androgen stimulation DHT 100 nM, FIG. 4.

Turning to `CC(=O)Nc1cc(C(=O)Nc2cc(C(=O)NCCC(=O)Nc3cc(C(=O)Nc4cc(C(=O)Nc5cc(C(=O)NCCCC(=O)Nc6cn(C)c(C(=O)Nc7cc(C(=O)Nc8cc(C(=O)NCCC(=O)Nc9cc(C(=O)Nc%10cc(C(=O)NCCC(=O)NCCCN(C)C)n(C)c%10)n(C)c9)n(C)c8)n(C)c7)n6)n(C)c5)n(C)c4)n(C)c3)n(C)c2)n(C)c1` [PI polyamide (3), AcPyPyβPyPyPyγImPyPyβPyPyβDp], in the test on LNCaP cells [1] (setting [6]), the cell proliferation entry is recorded as “suppressed in the same way”. Moreover, the “cell migration ability (invasive potential)” value (“cell migration ability” for short) with LNCaP cells [2] is “suppressed in the same way”. Further, in the test on ACSL3 gene (setting [7]), the “expression of the ACSL3 gene” value was “inhibited”.

As for `CC(=O)Nc1cn(C)c(C(=O)Nc2cc(C(=O)NCCC(=O)Nc3cc(C(=O)Nc4cc(C(=O)Nc5cc(C(=O)NCCCC(=O)Nc6cc(C(=O)Nc7cc(C(=O)Nc8cc(C(=O)NCCC(=O)Nc9cn(C)c(C(=O)Nc%10cc(C(=O)NCCC(=O)NCCCN(C)C)n(C)c%10)n9)n(C)c8)n(C)c7)n(C)c6)n(C)c5)n(C)c4)n(C)c3)n(C)c2)n1` [PI polyamide (2), AcImPyβPyPyPyγPyPyPyβImPyβDp], the cell proliferation entry with LNCaP cells [1] (setting [6]) is “suppressed in the same way”. Also, in the test on LNCaP cells [2], the “cell migration ability” value is “suppressed in the same way”. Moreover, the “expression of the ACSL3 gene” value in the test with ACSL3 gene (setting [7]) is listed as “inhibited”.

As for `CC(=O)Nc1cc(C(=O)Nc2cc(C(=O)NCCC(=O)Nc3cn(C)c(C(=O)Nc4cc(C(=O)Nc5cc(C(=O)NCCCC(=O)Nc6cc(C(=O)Nc7cn(C)c(C(=O)Nc8cc(C(=O)NCCC(=O)Nc9cn(C)c(C(=O)Nc%10cc(C(=O)NCCC(=O)NCCCN(C)C)n(C)c%10)n9)n(C)c8)n7)n(C)c6)n(C)c5)n(C)c4)n3)n(C)c2)n(C)c1` [PI polyamide (1), AcPyPyβImPyPyγPyImPyβImPyβDp], the “expression of the ACSL3 protein in excised tumors” value with ACSL3 protein is “remarkably inhibited”. Further, the cell proliferation entry in the test with LNCaP cells [1] (5 μM, after 48 hours of incubation, compared to PI polyamide (control) 5 μM, FIG. 8) was “significantly inhibited”; in the test with LNCaP cells [1] (5 μM, after 96 hours of incubation, FIG. 8) it was “further significantly inhibited”. Also, the “AR activity in the PSA promoter region” value with PSA promoter region is “no significant difference”. The formation of tumor entry in test [3] is “remarkably inhibited”. In the test with LNCaP cells [2], the “cell migration ability” value is listed as “significantly inhibited”. Moreover, the “expression of the ACSL3 gene” value in the test with ACSL3 gene (5 μM (1 μM or 5 μM tested), androgen stimulation, FIG. 5) is “particularly inhibited”; in the test on ACSL3 gene (setting [7]) it was “inhibited”. In addition, the “AR activity in the ACSL3 transcriptional regulatory region (AR response region)” value in test [4] is given as “significantly reduces”.

On to “AcPyPyPyImβImγPyβPyImβImβDp [PI polyamide (control), reference compound]”, for which the “binding to the Oct1 oligo DNA (presence/absence)” value in test [5] was “no binding occurs”. In addition, the “expression of the ACSL3 protein in excised tumors” value in the test with ACSL3 protein is recorded as “expressed”. Also, in the test with ACSL3 gene (setting [7]), the “expression of the ACSL3 gene” value is recorded as “not inhibited”.

The values above are taken from patent US9522978B2, “PI polyamide” (NIHON UNIVERSITY, priority 2013, dated 2016).
